{"source": "patent US20080009025A1", "about": "“PROTEIN KINASE REGULATION” (priority 1999, published 2008)", "system": "PKBα", "assay": "IGF1-induced activation and Ser473 phosphorylation of HA-PKBα in co-transfected 293 cells", "format": "cell-based, human", "description": "FIG. 4. […] 293 cells were co-transfected with constructs expressing the wild type full length HA-PKBα with either GST-PIF or GST. 24 h post transfection the cells were serum starved for 16 h and then stimulated for 15 min with 100 nM IGF1. The cells were lysed and HA-PKBα was immunoprecipitated and assayed as described in Methods. Protein from each lysate (10 μg) was electrophoresed on a 10% SDS/polyarylamide gel and immunoblotted using HA-antibody or the S473-P antibody. The HA-PKBα activities shown are the averages ±SEM for a single experiment carried out in triplicate, similar results were obtained in 3 separate experiments.\n293 cells cultured on 10 cm diameter dishes in Dulbecco's Modified Eagle's Medium containing 10% (by vol) foetal bovine serum, were transfected with 2 μg of DNA construct encoding either wild type or mutant HA-p70 S6K or HA-PKBα, and 10 μg of DNA construct encoding either GST-PIF, GST-F977A-PIF, GST, Myc-PDK1, kinase-dead Myc-PDK1, or the empty pCMV5 vector using a modified calcium phosphate method. 24 h post transfection the cells were deprived of serum for 16 h, and exposed to IGF1 (100 nM) for the time indicated. […] The protein concentrations of the lysates were determined by the Bradford method. […]", "data": [{"substance": "GST-PIF: glutathione S-transferase fused to the last 77 residues of PRK2 (PIF)", "values": [{"measurement": "IGF1-induced phosphorylation of HA-PKBα at Ser473", "result": "did not inhibit or potentiate"}]}]}
